One data set addresses T1, Kir3.1/4 channel (Homo sapiens, UniProt P48544+P48549).
T1 sequence (P48549 1-501): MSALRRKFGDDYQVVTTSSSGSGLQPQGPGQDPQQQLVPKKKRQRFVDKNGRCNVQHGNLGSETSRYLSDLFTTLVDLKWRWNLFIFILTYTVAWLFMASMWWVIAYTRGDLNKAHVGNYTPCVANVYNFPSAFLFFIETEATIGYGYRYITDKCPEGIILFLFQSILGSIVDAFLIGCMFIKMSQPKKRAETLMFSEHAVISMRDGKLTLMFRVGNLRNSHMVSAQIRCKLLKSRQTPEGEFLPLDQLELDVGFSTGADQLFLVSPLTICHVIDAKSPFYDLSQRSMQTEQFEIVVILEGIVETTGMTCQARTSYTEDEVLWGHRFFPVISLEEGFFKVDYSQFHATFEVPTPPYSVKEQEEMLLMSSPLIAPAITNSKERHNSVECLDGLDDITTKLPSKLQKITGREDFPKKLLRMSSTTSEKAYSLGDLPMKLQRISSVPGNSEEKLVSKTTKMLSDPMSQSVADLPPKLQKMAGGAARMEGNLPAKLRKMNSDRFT
T1 sequence (P48544 1-419): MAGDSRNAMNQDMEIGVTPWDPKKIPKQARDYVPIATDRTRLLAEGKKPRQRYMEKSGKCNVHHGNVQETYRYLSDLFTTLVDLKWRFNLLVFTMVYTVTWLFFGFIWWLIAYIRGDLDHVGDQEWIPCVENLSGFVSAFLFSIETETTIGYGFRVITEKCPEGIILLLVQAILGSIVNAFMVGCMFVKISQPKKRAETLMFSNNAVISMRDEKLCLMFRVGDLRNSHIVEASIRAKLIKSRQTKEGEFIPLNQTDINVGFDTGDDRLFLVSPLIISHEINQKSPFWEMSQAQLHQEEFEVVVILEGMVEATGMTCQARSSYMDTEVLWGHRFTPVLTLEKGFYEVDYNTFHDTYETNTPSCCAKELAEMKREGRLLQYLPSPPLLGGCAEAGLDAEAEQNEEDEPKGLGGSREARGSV
The data set is described as follows: Whole-cell patch clamp, HEK293T cells, Kir3.1/4. It counts as cell-based. Further details: expressed in transfected cells. The conditions noted are these: whole-cell patch-clamp HEK-293 cells; read-out: IC50, inhibition of Kir3.1/4. The method, then: For the experiments shown in Figure 1, G and H, whole-cell currents were recorded with an Axopatch 200B amplifier and pCLAMP software (Molecular Devices). HEK293T cells were transiently transfected with 1 μg Kir3.1 together with 1 μg Kir3.2 or 1 μg Kir3.4 DNA, using polyethylenimine (PEI). The cells were maintained in DMEM supplemented with 10% Fetal Bovine Serum and 1% Penicillin/Streptomycin at 37 °C in a 5% CO2 humidified atmosphere and were studied 24 to 48 h after transfection. HEK293T cells were bathed in Low K^+ (LK) solution (135 mM NaCl, 5 mM KCl, 1.2 mM MgCl2, 1.5 mM CaCl2, 8 mM Glucose, 10 mM HEPES with pH 7.4). High K^+ (HK) solution (5 mM NaCl, 135 mM KCl, 1.2 mM MgCl2, 1.5 mM CaCl2, 8 mM Glucose, 10 mM HEPES with pH 7.4) was perfused to establish basal currents. BP-G1 in HK solution was perfused sequentially in a concentration response manner prior to applying 5 mM BaCl2 in HK to identify remaining barium-insensitive leak currents and subtract them from the current records. […] Cells used in the experiments were selected based on eGFP fluorescence. A ramp protocol from −80 mV to +80 mV was used and currents were recorded at −80 mV in the whole-cell mode (using the Strathclyde Electrophysiology Software from the University of Strathclyde, Glasgow). The patch-clamp data were analyzed offline in pClamp (Molecular Devices) and OriginLab software. […]
On the technique in general: The patch-clamp technique gives a direct electrical read-out from membranes.

Data set [1] is described as follows: Plasma protein binding, rat. It counts as in vitro ADME. The note with it: read-out: Rat Plasma Protein Binding (PPB) (converted).
The target of a further data set is T2, wild-type Kir3.4 channel (Homo sapiens, UniProt P48544).
T2 construct: expressed in transfected cells; host or cells: Xenopus laevis oocytes (cRNA injection)
The data set is described as follows: TEVC in Xenopus oocytes, wild-type Kir3.4. It counts as cell-based. The conditions noted are these: 1 μM. As for the experimental part:
X. laevis oocytes were isolated and microinjected as previously described ([6]). Human Kir3.1, mouse Kir3.2, and human Kir3.4 DNA constructs were used for electrophysiology experiments. All cRNA constructs were injected in the amount of 2 ng per oocyte. Injected oocytes were incubated for 2 to 3 days at 18 °C to allow for expression. Whole-cell oocyte currents were then measured using a GeneClamp 500 amplifier (Axon Instruments). Microelectrodes had resistances of 0.5 to 1 megohm using a 3M KCl solution in 1.4% agarose. Oocytes were perfused with a low K^+ (LK) solution ND96 (2 mM KCl, 96 mM NaCl, 1 mM MgCl2, 1.8 mM CaCl2, 5 mM HEPES-Na) to establish a baseline for the recordings. Basal current was measured in a high potassium (HK) solution ND96K (96 mM KCl, 10 mM HEPES-K, 1 mM MgCl2, 1.8 mM CaCl2). To block the current, the oocyte chamber was perfused with 4 mM BaCl2 in ND96K. Only the Barium-sensitive current was used for statistical analysis. To measure the inhibitory activity of the channels, 1 μM BP-G1 in ND96K (HK) was used. Typically, oocytes were held at 0 mV (EK) and the current was monitored constantly using a ramp protocol with a command potential from −80 to +80 mV. Current amplitude was measured at the end of a 1 s sweep. All currents were analyzed when they reached steady state. Error bars in the figures represent SD (N > 4).

Values joined by “and” are separate entries in the source; they are usually repeats but may differ in a detail not shown here. Equal values may be shown once. “Also recorded” adds a separate entry of the source.

Turning to `Cc1cc(CO)nc2cc3c(cc12)OC(C)(C)[C@H](O)[C@H]3NCCc1ccccc1` [BP-G1, (3R,4S)-7-(hydroxymethyl)-2,2,9-trimethyl-4-(2-phenylethylamino)-3,4-dihydropyrano[2,3-g]quinolin-3-ol], the IC50 at Kir3.1/4 channel is 10 to 30 nM and 10.5 nM. In data set [1], the fraction unbound is 0.11. Further, on wild-type Kir3.4 channel, the “inhibition of wild-type Kir3.4” value was “did not inhibit; also recorded: showed no block”.
